The values below are quoted from earlier work in paper PMC11054727 (Viruses, 2024).

The subject of data set [1] is SARS-CoV-2. The note with it: cited from earlier work.
The subject of data set [2] is SARS-CoV-2. More on the design: method as in ref 23. The note with it: Table S1, experimental antiviral activity; read-out: Observed EC50; cited from earlier work.
The test system of data set [3] is Nsp5 Main protease (Mpro). The note with it: cited from earlier work.
The next data set relates to hCoV-OC43. More on the design: method as in ref 2 = [2]. The note with it: read-out: EC50 hCoV-OC43 infections; cited from earlier work.
The test system of the next data set is SARS-CoV-2 Spike. The note with it: read-out: Spike-mediated fusion activity EC50; cited from earlier work.
The test system of data set [4] is SARS-CoV-2. To be noted: cited from earlier work. The source holds these as a separate data set.
In a further data set the test system is SARS-CoV-2 pseudovirus. On the set-up: method as in ref 48 = [48]. To be noted: read-out: EC50 pseudovirus entry; cited from earlier work.
The mark [5] stands for this setting: experimental CPE data, read-out: EC50 CPE.

Read-outs that look alike come from different tables or passages of the source.

Usually EC50 stands for the concentration needed to bring the measured effect to its halfway point. `CCOC(=O)c1c(CS(=O)(=O)c2ccc(Cl)cc2)n(C)c2cc(Br)c(O)c(CN(C)C)c12` [1b]: the concentration for a half-maximal effect (EC50) in the data set on SARS-CoV-2 [1] (setting [5]) was 29.5 µM. Take `COc1ccc(Nc2cc3nc4ccccc4n(-c4ccc(Cl)cc4)c-3cc2=N)cc1` [6d]: the EC50 in the data set on SARS-CoV-2 [2] was 154 µM. As to `COc1ccc(Nc2cc3nc4ccccc4n(-c4ccc(Cl)cc4)c-3cc2=N)c(OC)c1` [6e], the EC50 in the data set with SARS-CoV-2 [2] is 16.1 µM. With `Clc1ccc(Nc2cc3nc4ccccc4n(-c4ccc(Cl)cc4)c-3cc2=NC2CC2)cc1` [7a], the concentration for a half-maximal effect (EC50) in the data set with SARS-CoV-2 [2] was 141 µM.

On to `CC(C)N=c1cc2n(-c3ccc(Cl)cc3)c3ccccc3nc-2cc1Nc1ccccc1` [7c], for which, in the data set with SARS-CoV-2 [2], the EC50 was 40.9 µM. In the case of `COc1ccc(Nc2cc3nc4ccccc4n(-c4ccc(Cl)cc4)c-3cc2=NC(C)C)cc1` [7g], in the data set on SARS-CoV-2 [2], the EC50 was 16.6 µM. In the case of `CC(C)N=c1cc2n(-c3ccc(Cl)cc3)c3ccccc3nc-2cc1Nc1ccc(OC(F)(F)F)cc1` [7i], the EC50 in the data set on SARS-CoV-2 [2] was 10 µM. For `CC(C)N=c1cc2n(-c3ccc(Cl)cc3)c3ccccc3nc-2cc1NCc1ccc(Cl)cc1` [7k], in the data set with SARS-CoV-2 [2], the EC50 is 12.4 µM. For the compound `CC(C)N=c1cc2n(-c3ccc(F)cc3)c3ccccc3nc-2cc1Nc1ccc(Cl)cc1` [15a], the concentration for a half-maximal effect (EC50) in the data set with SARS-CoV-2 [2] was 29.6 µM. Turning to `CC(C)N=c1cc2n(-c3ccc(F)cc3)c3ccccc3nc-2cc1Nc1ccc(F)cc1` [15b], the EC50 in the data set with SARS-CoV-2 [2] is 81.1 µM.

Consider `COc1ccc(-n2c3cc(=NC(C)C)c(Nc4cccc(F)c4)cc-3nc3ccccc32)cc1` [15f], for which the EC50 in the data set on SARS-CoV-2 [2] was 14.6 µM. As for `COc1ccc(-n2c3cc(=NC(C)C)c(Nc4ccc(F)cc4)cc-3nc3ccccc32)cc1` [15g], the EC50 in the data set on SARS-CoV-2 [2] was 10 µM. With `COc1ccc(-n2c3cc(=NC4CC4)c(Nc4ccc(F)cc4)cc-3nc3ccccc32)cc1` [15h], the EC50 in the data set with SARS-CoV-2 [2] is 33.1 µM. Regarding `C=C[C@@]1(C)CC(=O)[C@]2(O)[C@@]3(C)[C@@H](O)CCC(C)(C)[C@@H]3[C@H](OC(=O)CCN(C)C)[C@H](OC(C)=O)[C@@]2(C)O1.Cl` [NKH477], the “extent of inhibition in CPE assays” value with SARS-CoV-2 [1] (Vero E6 cells) is “partial inhibitors”. In the case of `CCC(CC)COC(=O)[C@H](C)N[P@](=O)(OC[C@H]1O[C@@](C#N)(c2ccc3c(N)ncnn23)[C@H](O)[C@@H]1O)Oc1ccccc1` [Remdesivir], the “extent of inhibition in CPE assays” value in the data set on SARS-CoV-2 [1] is reported as “full inhibitors”. For `CCOC(=O)c1c(CSc2ccccc2)n(C)c2cc(Br)c(O)c(CN(C)C)c12` [compound 1, Arbidol], the “extent of inhibition in CPE assays” value in the data set with SARS-CoV-2 [1] is recorded as “partial inhibitor”. The EC50 with SARS-CoV-2 [1] (setting [5]) was 5.6 µM; in the data set with SARS-CoV-2 [2], 10 µM.

As for `CC(C)/N=c1\cc2n(-c3ccc(Cl)cc3)c3ccccc3nc-2cc1Nc1ccc(Cl)cc1` [compound 2, Clofazimine], the “Nsp5 Main protease (Mpro) activity” value in data set [3] was “zero activity”. Moreover, the EC50 is 0.35 µM in the data set on hCoV-OC43; 2.56 µM with SARS-CoV-2 Spike; 0.31 µM with SARS-CoV-2 [1] (read-out: consensus EC50 antiviral activity); 0.01 µM with SARS-CoV-2 [4] (same study as hCoV-OC43, read-out: EC50 SARS-CoV-2 infections). Besides, in the data set on SARS-CoV-2 [4] (Vero E6, Huh7, and Caco-2 cells), the “extent of inhibition in infection assays” value is “full inhibitor”. `CN(C)CCOc1ccc(/C(=C(/CCCl)c2ccccc2)c2ccccc2)cc1` [compound 3, Toremifene]: the EC50 in the data set on SARS-CoV-2 pseudovirus was 1.92 µM; with SARS-CoV-2 [4] (read-out: EC50 live SARS-CoV-2 infections), 3.58 µM.

For `CC(CN(C)C)CN1c2ccccc2CCc2ccccc21` (stereo not drawn) [trimipramine], the “extent of inhibition in CPE assays” value with SARS-CoV-2 [1] (Vero E6 cells) is “partial inhibitors”.
